Values quoted from earlier work, collected in patent publication US7479481B2, “Treatment of ocular diseases and disorders using lantibiotic compositions” (Molichem Medicines, Inc., priority 2004, dated 2009).

Test system: clatharin-coated vesicle acidification
Conditions: clatharin-coated vesicles; Stone et al., J. Biol. Chem. 259: 2701-2703 (1984)

## duramycin
  inhibition of the proton translocation facilitated by chloride translocation: up to 50%
